Key:
[1] = molecular target: T1, HsGMPR1 (human GMPR type 1) (Homo sapiens, UniProt P36959); experiment: NADPH consumption at […] nm, Hill fit; assay type: biochemical
T1 construct: recombinant
T1 sequence (P36959 1-345): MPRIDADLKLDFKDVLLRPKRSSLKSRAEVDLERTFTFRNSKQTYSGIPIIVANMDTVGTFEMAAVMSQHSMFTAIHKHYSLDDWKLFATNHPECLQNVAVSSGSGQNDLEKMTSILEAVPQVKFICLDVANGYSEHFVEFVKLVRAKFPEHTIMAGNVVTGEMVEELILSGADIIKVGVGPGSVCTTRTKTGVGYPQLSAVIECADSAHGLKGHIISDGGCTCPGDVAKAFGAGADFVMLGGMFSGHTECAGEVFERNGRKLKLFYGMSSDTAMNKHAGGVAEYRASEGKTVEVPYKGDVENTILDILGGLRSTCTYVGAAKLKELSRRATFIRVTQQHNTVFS

[2] = molecular target: T2, HsGMPR2 (human GMPR type 2) (Homo sapiens, UniProt Q9P2T1); experiment: NADPH consumption at […] nm, Hill fit; assay type: biochemical
T2 construct: gene GMPR2; recombinant
T2 sequence (Q9P2T1 1-348): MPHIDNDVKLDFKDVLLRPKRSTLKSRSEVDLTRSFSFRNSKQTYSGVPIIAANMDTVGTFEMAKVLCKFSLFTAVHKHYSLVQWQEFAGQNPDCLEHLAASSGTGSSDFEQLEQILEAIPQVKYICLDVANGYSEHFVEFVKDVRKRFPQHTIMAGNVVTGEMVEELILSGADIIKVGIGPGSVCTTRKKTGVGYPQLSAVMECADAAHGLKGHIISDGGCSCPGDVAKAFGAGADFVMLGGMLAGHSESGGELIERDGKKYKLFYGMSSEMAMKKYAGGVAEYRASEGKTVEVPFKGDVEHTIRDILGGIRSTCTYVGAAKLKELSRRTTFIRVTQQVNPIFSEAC

[3] = molecular target: T3, T. brucei guanosine 5'-monophosphate reductase (TbGMPR) (Trypanosoma brucei, UniProt Q57ZS7); experiment: NADPH consumption at […] nm, Hill fit; assay type: biochemical
T3 construct: gene Tb05.1P6.110; recombinant TbGMPR coding region, GST fusion in E. coli, tag cleaved with PreScission protease

[4] = molecular target: T3, T. brucei guanosine 5'-monophosphate reductase (TbGMPR); experiment: NADPH consumption at […] nm, Lineweaver-Burk, competitive inhibition fit (IC50 […]); assay type: biochemical
purified protein [5] = substrate: NC(=O)C1=CN([C@@H]2O[C@H](COP(=O)(O)OP(=O)(O)OC[C@H]3O[C@@H](n4cnc5c(N)ncnc54)[C@H](OP(=O)(O)O)[C@@H]3O)[C@@H](O)[C@H]2O)C=CC1; experiment: purified protein; assay type: biochemical, Trypanosoma brucei; details: varied: cofactor
purified protein [6] = substrate: Nc1nc2c(ncn2[C@@H]2O[C@H](COP(=O)(O)O)[C@@H](O)[C@H]2O)c(=O)[nH]1; experiment: purified protein; assay type: biochemical, Trypanosoma brucei; details: NADPH
purified protein [7] = substrate: Nc1nc2c(ncn2[C@@H]2O[C@H](COP(=O)(O)O)[C@@H](O)[C@H]2O)c(=O)[nH]1; experiment: purified protein; assay type: biochemical, Homo sapiens; details: NADPH
purified protein [8] = substrate: NC(=O)C1=CN([C@@H]2O[C@H](COP(=O)(O)OP(=O)(O)OC[C@H]3O[C@@H](n4cnc5c(N)ncnc54)[C@H](OP(=O)(O)O)[C@@H]3O)[C@@H](O)[C@H]2O)C=CC1; experiment: purified protein; details: varied: cofactor

NC(=O)c1ncn([C@@H]2O[C@H](COP(=O)(O)O)[C@@H](O)[C@H]2O)c1O [MZP, mizoribine 5’-monophosphate]
IC50 [1]: 120 ± 16.1 µM
IC50 [2]: 69.3 ± 7.8 µM
IC50 [3]: 23.7 ± 1.9 µM

NC(=O)c1ncn([C@@H]2O[C@H](COP(=O)(O)O)[C@@H](O)[C@H]2O)n1 [RMP, ribavirin 5'-monophosphate]
Ki [4]: 4.46 ± 0.46 µM

B1: T. brucei guanosine 5'-monophosphate reductase (TbGMPR) (Trypanosoma brucei brucei TREU927) (protein)
chain: MSFNESASIPTGLTYDDVLIIPQHSRVTSRKEVNTTTRLSRNVKLSIPIVASNMDTVCEQRMAVAMAREGGIGILHRFCSIEEQCAMLREVKRAQSFLIESPRIILPHETAREAWEGLNWKGRVGGVGCLLVVNCKNERKLLGIITRHDLKLADESTTVESLMTPVDKMVVSTNTSISLEEVTHLMRKGRTANVPIVGQNGQLLYLVTLSDVVKLRKNKQASLDSRGRLLVGAAVGVKKDDMNRAIRLVEAGADVLVVDIAHGHSDLCINMVKRLKGDPRTASVDIIAGNIASAEAAEALIDAGADGLKIGVGPGSICITRLVAGAGVPQLSAVLACTRVARRRGVPCIADGGLRTSGDISKAIGAGADTVMLGNMLAGTDEAPGRVLVKDGQKVKIIRGMAGFGANLSKAERERTQDEDVFSSLVPEGVEGSVACKGPVGPIVRQLVGGLRSGMSYSGAKSIEEMQRRTRFVRMTGAGLRESGSHGVAKL
notes: recombinant TbGMPR coding region, GST fusion in E. coli, tag cleaved with PreScission protease
Km (purified protein [5]): 12.3 ± 0.8 µM
Km (purified protein [6]): 89.3 ± 9.0 µM

B2: HsGMPR1 (human GMPR type 1) (Homo sapiens) (protein)
chain: MPRIDADLKLDFKDVLLRPKRSSLKSRAEVDLERTFTFRNSKQTYSGIPIIVANMDTVGTFEMAAVMSQHSMFTAIHKHYSLDDWKLFATNHPECLQNVAVSSGSGQNDLEKMTSILEAVPQVKFICLDVANGYSEHFVEFVKLVRAKFPEHTIMAGNVVTGEMVEELILSGADIIKVGVGPGSVCTTRTKTGVGYPQLSAVIECADSAHGLKGHIISDGGCTCPGDVAKAFGAGADFVMLGGMFSGHTECAGEVFERNGRKLKLFYGMSSDTAMNKHAGGVAEYRASEGKTVEVPYKGDVENTILDILGGLRSTCTYVGAAKLKELSRRATFIRVTQQHNTVFS
notes: recombinant
Km (purified protein [7]): 22.1 ± 2.2 µM
Km (purified protein [8]): 34.8 ± 4.3 µM
